Literature values, collected in patent publication US10945989B2, “Perinatal treatment with a flavonoid agonist of the TrkB receptor for BDNF rescues neurogenesis and behavior in the Ts65Dn mouse model of DS” (ALMA MATER STUDIORUM—Universita' di Bologna, priority 2017, dated 2021).

Test system: Ts65Dn mouse model of DS
Conditions: perinatal treatment, Bianchi et al., 2010b; Guidi et al., 2014; cited from earlier work

Structure (SMILES): CNCCC(Oc1ccc(C(F)(F)F)cc1)c1ccccc1 (stereo not shown) [fluoxetine]
- brain development and cognitive performance: fully restores brain development and cognitive performance
